Data: ChEMBL document CHEMBL5291721, “A preclinical secondary pharmacology resource illuminates target-adverse drug reaction associations of marketed drugs” (Nat Commun, 2023)

Assays:
[1] = molecular target: T1, Androgen receptor (Homo sapiens, UniProt P10275)
T1 sequence (P10275 whole entry): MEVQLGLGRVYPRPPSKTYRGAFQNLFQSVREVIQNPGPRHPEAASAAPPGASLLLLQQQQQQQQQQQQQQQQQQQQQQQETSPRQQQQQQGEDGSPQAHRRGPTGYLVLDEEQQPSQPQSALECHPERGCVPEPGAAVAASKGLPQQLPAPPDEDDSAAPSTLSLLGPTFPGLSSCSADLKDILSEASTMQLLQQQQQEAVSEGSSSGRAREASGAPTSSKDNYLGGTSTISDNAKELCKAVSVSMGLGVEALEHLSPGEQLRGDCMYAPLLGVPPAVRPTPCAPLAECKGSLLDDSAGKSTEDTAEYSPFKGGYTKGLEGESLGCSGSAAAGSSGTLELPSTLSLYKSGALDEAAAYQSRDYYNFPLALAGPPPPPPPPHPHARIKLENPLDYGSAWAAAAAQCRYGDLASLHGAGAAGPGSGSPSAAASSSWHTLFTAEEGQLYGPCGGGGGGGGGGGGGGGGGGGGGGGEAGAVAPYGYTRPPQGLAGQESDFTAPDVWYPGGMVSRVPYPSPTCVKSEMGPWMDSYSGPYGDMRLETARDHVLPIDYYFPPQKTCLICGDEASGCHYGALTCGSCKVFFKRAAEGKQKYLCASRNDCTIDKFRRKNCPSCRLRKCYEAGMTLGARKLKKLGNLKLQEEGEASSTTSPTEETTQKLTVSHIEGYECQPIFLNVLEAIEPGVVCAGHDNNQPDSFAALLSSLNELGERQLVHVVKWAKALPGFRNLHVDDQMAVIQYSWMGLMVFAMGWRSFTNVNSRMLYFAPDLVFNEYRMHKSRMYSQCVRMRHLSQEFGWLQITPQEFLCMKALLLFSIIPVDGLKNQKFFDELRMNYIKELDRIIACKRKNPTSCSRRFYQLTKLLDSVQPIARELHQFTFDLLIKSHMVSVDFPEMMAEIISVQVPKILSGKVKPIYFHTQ

[2] = molecular target: T2, Muscarinic acetylcholine receptor M1 (Homo sapiens, UniProt P11229); assay type: functional, cell-based
T2 sequence (P11229 whole entry): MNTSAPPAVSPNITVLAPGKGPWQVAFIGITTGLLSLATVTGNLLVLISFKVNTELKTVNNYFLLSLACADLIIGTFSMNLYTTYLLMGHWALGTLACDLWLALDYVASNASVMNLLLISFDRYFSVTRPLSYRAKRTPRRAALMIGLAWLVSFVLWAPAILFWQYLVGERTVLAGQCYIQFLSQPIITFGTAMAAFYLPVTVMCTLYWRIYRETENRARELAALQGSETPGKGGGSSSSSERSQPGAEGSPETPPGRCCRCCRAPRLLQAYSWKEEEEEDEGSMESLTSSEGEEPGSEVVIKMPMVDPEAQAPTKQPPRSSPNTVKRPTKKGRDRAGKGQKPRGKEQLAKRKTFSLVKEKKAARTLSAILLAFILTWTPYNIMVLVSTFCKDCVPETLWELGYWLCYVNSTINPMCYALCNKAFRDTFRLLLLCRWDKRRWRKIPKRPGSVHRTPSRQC

[3] = molecular target: Acetylcholinesterase (Homo sapiens, UniProt P22303); assay type: functional
[4] = molecular target: Voltage-gated inwardly rectifying potassium channel KCNH2 (Homo sapiens, UniProt Q12809); assay type: functional; conditions: read-out: AC50
[5] = molecular target: T3, Alpha-1A adrenergic receptor (Homo sapiens, UniProt P35348); assay type: functional, cell-based
T3 sequence (P35348 whole entry): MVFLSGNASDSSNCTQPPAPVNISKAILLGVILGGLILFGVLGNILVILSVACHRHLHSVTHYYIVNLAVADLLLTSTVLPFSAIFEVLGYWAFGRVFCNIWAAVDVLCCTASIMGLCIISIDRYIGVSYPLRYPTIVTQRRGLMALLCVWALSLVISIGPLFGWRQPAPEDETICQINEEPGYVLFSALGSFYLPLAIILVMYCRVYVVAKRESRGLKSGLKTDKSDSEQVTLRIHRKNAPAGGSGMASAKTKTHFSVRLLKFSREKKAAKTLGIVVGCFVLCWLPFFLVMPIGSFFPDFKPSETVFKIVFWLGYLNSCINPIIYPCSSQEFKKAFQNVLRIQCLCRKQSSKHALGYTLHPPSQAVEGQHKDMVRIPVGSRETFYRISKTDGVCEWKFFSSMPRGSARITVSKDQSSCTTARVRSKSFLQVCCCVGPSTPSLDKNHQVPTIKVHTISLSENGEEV

[6] = molecular target: Sodium-dependent serotonin transporter (Homo sapiens, UniProt P31645)
[7] = molecular target: D(3) dopamine receptor (Homo sapiens, UniProt P35462)
[8] = molecular target: D(1A) dopamine receptor (Homo sapiens, UniProt P21728)
[9] = molecular target: cGMP-inhibited 3',5'-cyclic phosphodiesterase 3A (Homo sapiens, UniProt Q14432); assay type: functional
[10] = molecular target: Gamma-aminobutyric acid receptor subunit alpha-1/alpha-2/beta-2/gamma-2 (Homo sapiens, UniProt P14867+P18507+P47869+P47870); assay type: protein-complex assay
[11] = molecular target: Kappa-type opioid receptor (Homo sapiens, UniProt P41145)
[12] = molecular target: Gamma-aminobutyric acid receptor subunit alpha-1 (Rattus norvegicus, UniProt P62813)
[13] = molecular target: T4, Type-1 angiotensin II receptor (Homo sapiens, UniProt P30556)
T4 sequence (P30556 whole entry): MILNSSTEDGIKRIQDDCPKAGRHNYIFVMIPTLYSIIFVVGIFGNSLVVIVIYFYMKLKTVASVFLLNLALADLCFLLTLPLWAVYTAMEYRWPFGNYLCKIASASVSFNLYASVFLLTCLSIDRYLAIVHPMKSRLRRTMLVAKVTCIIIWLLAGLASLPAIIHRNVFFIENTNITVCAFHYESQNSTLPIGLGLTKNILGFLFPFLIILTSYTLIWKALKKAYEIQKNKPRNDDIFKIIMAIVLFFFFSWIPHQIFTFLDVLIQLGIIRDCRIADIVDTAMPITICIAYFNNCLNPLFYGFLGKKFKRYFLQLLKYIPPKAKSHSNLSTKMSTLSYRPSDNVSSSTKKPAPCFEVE
Also: assay procedure not described here.

Chain of Gamma-aminobutyric acid receptor subunit alpha-1 (P62813 whole entry): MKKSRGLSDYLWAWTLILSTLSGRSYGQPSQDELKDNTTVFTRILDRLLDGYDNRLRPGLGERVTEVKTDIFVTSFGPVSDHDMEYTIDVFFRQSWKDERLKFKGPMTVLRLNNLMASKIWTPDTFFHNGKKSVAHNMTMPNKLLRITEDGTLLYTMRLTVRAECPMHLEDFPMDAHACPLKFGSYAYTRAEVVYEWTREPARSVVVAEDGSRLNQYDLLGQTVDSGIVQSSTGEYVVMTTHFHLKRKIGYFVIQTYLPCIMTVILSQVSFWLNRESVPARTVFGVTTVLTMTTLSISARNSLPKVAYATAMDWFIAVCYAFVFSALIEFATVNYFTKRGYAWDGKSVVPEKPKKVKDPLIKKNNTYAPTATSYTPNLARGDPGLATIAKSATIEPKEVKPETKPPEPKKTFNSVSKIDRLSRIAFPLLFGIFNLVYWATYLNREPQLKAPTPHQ
Chain of Kappa-type opioid receptor (P41145 whole entry): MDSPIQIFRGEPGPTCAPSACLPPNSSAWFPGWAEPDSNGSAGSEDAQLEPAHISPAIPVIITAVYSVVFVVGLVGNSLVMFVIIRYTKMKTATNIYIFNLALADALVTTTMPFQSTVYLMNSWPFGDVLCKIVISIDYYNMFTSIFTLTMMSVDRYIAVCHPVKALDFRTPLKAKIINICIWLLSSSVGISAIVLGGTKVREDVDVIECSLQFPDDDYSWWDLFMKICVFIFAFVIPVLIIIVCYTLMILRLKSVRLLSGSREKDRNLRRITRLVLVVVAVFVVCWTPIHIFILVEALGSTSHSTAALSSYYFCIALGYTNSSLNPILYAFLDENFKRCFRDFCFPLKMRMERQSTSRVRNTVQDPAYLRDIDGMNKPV
Chain of Acetylcholinesterase (P22303 whole entry): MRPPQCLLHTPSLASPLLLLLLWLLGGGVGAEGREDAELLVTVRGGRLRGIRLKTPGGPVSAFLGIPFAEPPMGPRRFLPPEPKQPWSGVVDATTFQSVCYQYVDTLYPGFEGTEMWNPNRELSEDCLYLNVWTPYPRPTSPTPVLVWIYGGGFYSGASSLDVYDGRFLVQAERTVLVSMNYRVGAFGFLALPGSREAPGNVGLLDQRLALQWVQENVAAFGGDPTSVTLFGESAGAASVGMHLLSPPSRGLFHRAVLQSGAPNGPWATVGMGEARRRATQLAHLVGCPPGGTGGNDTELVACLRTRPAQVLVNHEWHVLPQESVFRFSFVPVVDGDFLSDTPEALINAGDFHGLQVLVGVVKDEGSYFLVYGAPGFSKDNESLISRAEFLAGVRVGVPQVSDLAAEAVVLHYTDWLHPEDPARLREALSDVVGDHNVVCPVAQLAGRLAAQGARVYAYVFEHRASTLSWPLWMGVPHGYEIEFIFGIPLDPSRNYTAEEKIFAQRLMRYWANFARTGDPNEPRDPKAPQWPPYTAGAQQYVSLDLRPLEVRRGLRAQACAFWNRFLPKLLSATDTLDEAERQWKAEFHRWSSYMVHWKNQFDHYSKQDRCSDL
Chain of Voltage-gated inwardly rectifying potassium channel KCNH2 (Q12809 whole entry): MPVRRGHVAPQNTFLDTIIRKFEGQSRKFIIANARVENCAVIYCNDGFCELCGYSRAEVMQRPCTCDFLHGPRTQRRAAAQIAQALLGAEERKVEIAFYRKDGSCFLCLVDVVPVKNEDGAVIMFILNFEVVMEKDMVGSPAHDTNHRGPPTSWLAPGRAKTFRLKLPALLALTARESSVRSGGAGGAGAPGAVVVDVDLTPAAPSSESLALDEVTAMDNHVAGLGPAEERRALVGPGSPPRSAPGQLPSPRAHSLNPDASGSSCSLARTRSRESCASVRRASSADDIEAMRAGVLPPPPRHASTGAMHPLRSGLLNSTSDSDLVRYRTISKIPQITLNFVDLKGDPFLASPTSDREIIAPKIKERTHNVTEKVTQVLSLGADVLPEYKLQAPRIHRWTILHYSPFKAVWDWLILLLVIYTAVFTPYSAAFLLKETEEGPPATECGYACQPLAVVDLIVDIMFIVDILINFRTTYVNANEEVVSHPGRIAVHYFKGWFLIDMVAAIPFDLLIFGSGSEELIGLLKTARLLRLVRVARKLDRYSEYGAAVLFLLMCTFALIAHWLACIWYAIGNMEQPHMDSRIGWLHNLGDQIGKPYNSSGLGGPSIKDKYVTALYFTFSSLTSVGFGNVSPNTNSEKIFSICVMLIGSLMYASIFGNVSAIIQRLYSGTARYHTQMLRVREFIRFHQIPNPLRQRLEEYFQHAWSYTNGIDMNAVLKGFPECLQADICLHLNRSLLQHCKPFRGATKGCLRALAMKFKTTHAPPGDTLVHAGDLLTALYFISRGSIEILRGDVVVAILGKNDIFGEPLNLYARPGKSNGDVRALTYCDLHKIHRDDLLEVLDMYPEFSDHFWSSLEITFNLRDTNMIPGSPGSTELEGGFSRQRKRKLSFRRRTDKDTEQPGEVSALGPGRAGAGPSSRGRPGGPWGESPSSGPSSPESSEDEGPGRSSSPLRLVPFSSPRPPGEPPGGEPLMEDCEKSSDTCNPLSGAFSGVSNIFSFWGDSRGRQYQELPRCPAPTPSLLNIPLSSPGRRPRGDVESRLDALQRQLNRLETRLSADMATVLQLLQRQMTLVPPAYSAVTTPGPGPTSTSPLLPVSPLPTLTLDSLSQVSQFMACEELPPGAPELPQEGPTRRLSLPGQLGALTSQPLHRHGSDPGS
Chain of cGMP-inhibited 3',5'-cyclic phosphodiesterase 3A (Q14432 whole entry): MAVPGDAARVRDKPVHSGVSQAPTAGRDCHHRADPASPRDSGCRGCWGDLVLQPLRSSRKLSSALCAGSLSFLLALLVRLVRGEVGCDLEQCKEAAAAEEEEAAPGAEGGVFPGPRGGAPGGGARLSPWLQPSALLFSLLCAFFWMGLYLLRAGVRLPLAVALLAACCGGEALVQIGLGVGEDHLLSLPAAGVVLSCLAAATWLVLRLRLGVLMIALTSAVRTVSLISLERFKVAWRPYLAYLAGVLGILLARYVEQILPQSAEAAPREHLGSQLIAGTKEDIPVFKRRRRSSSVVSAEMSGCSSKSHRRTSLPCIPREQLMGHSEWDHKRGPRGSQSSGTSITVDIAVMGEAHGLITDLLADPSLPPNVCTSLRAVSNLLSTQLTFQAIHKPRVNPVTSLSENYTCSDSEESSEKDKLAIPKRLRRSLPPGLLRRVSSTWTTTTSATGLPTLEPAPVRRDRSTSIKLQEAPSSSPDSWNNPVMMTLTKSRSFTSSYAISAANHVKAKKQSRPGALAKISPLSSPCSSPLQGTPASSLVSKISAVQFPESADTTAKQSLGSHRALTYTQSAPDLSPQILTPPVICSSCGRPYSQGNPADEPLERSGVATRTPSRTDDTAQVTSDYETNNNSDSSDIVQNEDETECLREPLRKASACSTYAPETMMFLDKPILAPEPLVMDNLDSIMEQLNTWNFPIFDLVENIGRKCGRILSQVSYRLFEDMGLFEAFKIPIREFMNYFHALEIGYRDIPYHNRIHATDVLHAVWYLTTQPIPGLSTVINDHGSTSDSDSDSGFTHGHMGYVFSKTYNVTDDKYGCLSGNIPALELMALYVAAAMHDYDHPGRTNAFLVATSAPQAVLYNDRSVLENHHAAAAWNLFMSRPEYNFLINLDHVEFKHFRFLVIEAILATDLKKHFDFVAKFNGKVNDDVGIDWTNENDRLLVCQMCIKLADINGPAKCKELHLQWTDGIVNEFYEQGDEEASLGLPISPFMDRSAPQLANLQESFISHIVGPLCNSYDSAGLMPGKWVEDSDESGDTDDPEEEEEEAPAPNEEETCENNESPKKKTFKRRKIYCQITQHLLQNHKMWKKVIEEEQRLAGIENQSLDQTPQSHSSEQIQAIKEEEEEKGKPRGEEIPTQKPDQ
Chain of D(1A) dopamine receptor (P21728 whole entry): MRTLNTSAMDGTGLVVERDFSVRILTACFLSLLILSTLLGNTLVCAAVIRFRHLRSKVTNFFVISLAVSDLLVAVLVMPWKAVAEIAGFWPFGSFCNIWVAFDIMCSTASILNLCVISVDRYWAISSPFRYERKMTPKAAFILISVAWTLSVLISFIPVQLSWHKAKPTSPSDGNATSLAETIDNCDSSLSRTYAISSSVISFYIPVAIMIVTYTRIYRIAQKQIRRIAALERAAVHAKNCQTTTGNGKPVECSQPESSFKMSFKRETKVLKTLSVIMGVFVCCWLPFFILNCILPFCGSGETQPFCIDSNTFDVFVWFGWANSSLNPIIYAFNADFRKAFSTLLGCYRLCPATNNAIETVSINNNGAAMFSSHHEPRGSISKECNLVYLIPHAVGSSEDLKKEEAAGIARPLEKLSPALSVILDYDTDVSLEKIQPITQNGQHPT
Chain of D(3) dopamine receptor (P35462 whole entry): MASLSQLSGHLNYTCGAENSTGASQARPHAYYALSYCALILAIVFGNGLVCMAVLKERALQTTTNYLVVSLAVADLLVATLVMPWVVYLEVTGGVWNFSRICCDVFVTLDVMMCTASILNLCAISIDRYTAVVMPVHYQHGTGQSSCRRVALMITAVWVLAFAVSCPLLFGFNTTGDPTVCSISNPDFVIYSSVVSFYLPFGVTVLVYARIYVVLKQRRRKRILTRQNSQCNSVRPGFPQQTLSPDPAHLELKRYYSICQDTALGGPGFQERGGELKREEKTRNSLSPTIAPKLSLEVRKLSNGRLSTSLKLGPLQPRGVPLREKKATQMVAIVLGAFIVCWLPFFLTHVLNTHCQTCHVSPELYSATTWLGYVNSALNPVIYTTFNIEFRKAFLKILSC

NC1CCN(c2c(F)cc3c(=O)c(C(=O)O)cn(C4CC4)c3c2Cl)C1 (configuration not stated) [CLINAFLOXACIN]
AC50 [1]: > 30 µM
AC50 [2]: > 30 µM
AC50 [3]: > 30 µM
AC50 [4]: > 30 µM
AC50 [5]: > 30 µM
AC50 [6]: > 30 µM
AC50 [7]: > 30 µM
AC50 [8]: > 30 µM
AC50 [9]: > 30 µM
AC50 [10]: > 30 µM

CN1CCN(C2=Nc3ccccc3Sc3ccc(Cl)cc32)CC1 [CLOTHIAPINE]
AC50 [11]: > 30 µM
AC50 [1]: > 30 µM
AC50 [2]: 0.42 µM
AC50 [12]: > 30 µM
AC50 [3]: > 30 µM
AC50 [4]: 4.1 µM
AC50 [5]: > 10 µM
AC50 [6]: 4.87 µM
AC50 [7]: 0.0061 µM
AC50 [8]: 0.0061 µM
AC50 [9]: > 30 µM

CCN1CCCC1CNC(=O)c1cc(S(N)(=O)=O)ccc1OC (configuration not stated) [SULPIRIDE]
AC50 [1]: > 30 µM
AC50 [12]: > 30 µM
AC50 [3]: > 30 µM
AC50 [4]: > 30 µM
AC50 [5]: > 30 µM
AC50 [8]: 16.5 µM
AC50 [9]: > 30 µM
AC50 [10]: > 30 µM

CC(C)(C)NCC(O)COc1cccc2c1SCCC2 (configuration not stated) [TERTATOLOL]
AC50 [1]: > 30 µM
AC50 [2]: > 30 µM
AC50 [3]: > 30 µM
AC50 [4]: > 30 µM
AC50 [5]: > 30 µM
AC50 [6]: 17.3 µM
AC50 [8]: > 30 µM
AC50 [9]: > 30 µM
AC50 [10]: > 30 µM

CC(=O)[C@@]1(O)CC[C@H]2[C@@H]3C=C(C)C4=CC(=O)CC[C@]4(C)[C@H]3CC[C@@]21C
AC50 [1]: 0.0119 µM
AC50 [2]: 15.3 µM
AC50 [3]: > 30 µM
AC50 [4]: > 30 µM
AC50 [5]: > 30 µM
AC50 [6]: > 30 µM
AC50 [7]: > 30 µM
AC50 [8]: > 30 µM
AC50 [9]: > 30 µM
AC50 [10]: > 30 µM

OB1OCc2cc(F)ccc21 [TAVABOROLE]
AC50 [1]: > 30 µM
AC50 [2]: > 30 µM
AC50 [3]: > 30 µM
AC50 [4]: > 30 µM
AC50 [5]: > 30 µM
AC50 [6]: > 30 µM
AC50 [7]: > 30 µM
AC50 [8]: > 30 µM
AC50 [9]: 14.1 µM
AC50 [10]: > 30 µM

C[N+]1(CCCCC[N+]2(C)CCCC2)CCCC1 [PENTOLINIUM]
AC50 [1]: > 30 µM
AC50 [2]: > 30 µM
AC50 [3]: > 30 µM
AC50 [4]: > 30 µM
AC50 [5]: > 30 µM
AC50 [6]: > 30 µM
AC50 [7]: > 30 µM
AC50 [8]: > 30 µM
AC50 [9]: > 30 µM
AC50 [10]: > 30 µM

O=[N+]([O-])c1cn2c(n1)OC[C@@H](OCc1ccc(OC(F)(F)F)cc1)C2 [PRETOMANID]
AC50 [11]: > 10 µM
AC50 [1]: > 30 µM
AC50 [2]: 10.6 µM
AC50 [12]: > 30 µM
AC50 [13]: > 30 µM
AC50 [3]: > 30 µM
AC50 [5]: > 10 µM
AC50 [6]: > 30 µM
AC50 [7]: > 30 µM
AC50 [8]: > 30 µM
AC50 [9]: > 30 µM

CCOc1ccccc1C(N)=O [ETHENZAMIDE]
AC50 [1]: > 30 µM
AC50 [2]: > 30 µM
AC50 [3]: > 30 µM
AC50 [4]: > 30 µM
AC50 [5]: > 30 µM
AC50 [6]: > 30 µM
AC50 [7]: > 30 µM
AC50 [8]: > 30 µM
AC50 [9]: > 30 µM
AC50 [10]: > 30 µM

CC(C)(C)N1CCC(c2ccccc2)(c2ccccc2)CC1 [BUDIPINE]
AC50 [1]: > 30 µM
AC50 [2]: 0.57 µM
AC50 [3]: > 30 µM
AC50 [4]: 6.5 µM
AC50 [5]: > 30 µM
AC50 [6]: > 30 µM
AC50 [7]: > 30 µM
AC50 [8]: > 30 µM
AC50 [9]: > 30 µM
AC50 [10]: > 30 µM

CCOc1ccccc1OCC1CNCCO1 (configuration not stated) [VILOXAZINE]
AC50 [11]: > 10 µM
AC50 [1]: > 30 µM
AC50 [2]: > 30 µM
AC50 [13]: > 30 µM
AC50 [3]: > 30 µM
AC50 [4]: > 30 µM
AC50 [5]: > 30 µM
AC50 [7]: > 30 µM
AC50 [8]: > 30 µM
AC50 [9]: > 30 µM
AC50 [10]: > 30 µM

Nc1ccc2cc3ccc(N)cc3nc2c1 [PROFLAVINE]
AC50 [1]: > 30 µM
AC50 [3]: 1.84 µM
AC50 [4]: 5 µM
AC50 [5]: > 0.3 µM
AC50 [6]: 26.6 µM
AC50 [7]: 22.9 µM
AC50 [8]: 10.6 µM
AC50 [9]: > 30 µM
AC50 [10]: > 30 µM

N[C@H]1C(O)O[C@H](CO)[C@@H](O)[C@@H]1O (some centres not stated) [GLUCOSAMINE]
AC50 [1]: > 30 µM
AC50 [2]: > 30 µM
AC50 [3]: > 30 µM
AC50 [4]: > 30 µM
AC50 [5]: > 30 µM
AC50 [6]: > 30 µM
AC50 [7]: > 30 µM
AC50 [8]: > 30 µM
AC50 [9]: > 30 µM
AC50 [10]: > 30 µM

CCCCOC(=O)C(=O)[C@H]1[C@H](C)C[C@H]2[C@@H]3C[C@H](F)C4=CC(=O)C=C[C@]4(C)[C@H]3[C@@H](O)C[C@@]21C [FLUOCORTIN BUTYL]
AC50 [1]: 0.316 µM
AC50 [2]: 19.8 µM
AC50 [3]: > 30 µM
AC50 [4]: 16 µM
AC50 [5]: > 30 µM
AC50 [6]: > 30 µM
AC50 [7]: > 30 µM
AC50 [8]: > 30 µM
AC50 [9]: > 30 µM
AC50 [10]: > 30 µM

COc1cc([C@@H]2c3cc4c(cc3[C@H](O)[C@H]3COC(=O)[C@H]23)OCO4)cc(OC)c1OC [PODOFILOX]
AC50 [1]: > 30 µM
AC50 [3]: > 30 µM
AC50 [4]: > 30 µM
AC50 [5]: > 30 µM
AC50 [7]: > 30 µM
AC50 [8]: > 30 µM
AC50 [9]: > 30 µM
AC50 [10]: > 30 µM

CCOC(=O)/C=C1\SC(N2CCCCC2)C(=O)N1C (configuration not stated) [ETOZOLIN]
AC50 [1]: > 30 µM
AC50 [2]: > 30 µM
AC50 [3]: > 30 µM
AC50 [4]: > 30 µM
AC50 [5]: > 30 µM
AC50 [6]: > 30 µM
AC50 [7]: > 30 µM
AC50 [8]: > 30 µM
AC50 [9]: > 30 µM
AC50 [10]: > 30 µM
